Like-named read-outs stand apart in the source and are kept apart here.
Key:
LPAR1 = biological target: T1, LPAR1 (Homo sapiens, UniProt Q92633); assay: Cell calcium flux assay (antagonist mode, LPA at EC80, FLIPR); type: cell-based
T1 construct: expressed in transfected cells; host or cells: CHO (CHO-LPA1 cells)
Description: • 1) The test compound was diluted to a 400X stock solution with DMSO in a 384-well plate. • 2) 1 µl of compound solution from step 1 was transferred into 39 ul of assay buffer to prepare a 10X working solution in a 384-well plate using a Bravo automated liquid handling platform. • 3) CHO-LPA1 cells were cultured in F12 medium (10% FBS). • 4) When cells reached 80% confluence, the cells were dissociated using 0.25% trypsin-EDTA. • 5) Cell density was determined and the cells were diluted to 4x10e5/ml using F12 (10% FBS). • 6) 30 µl of the cell suspension was dispensed into a 384-well plate (corning 3764#) using a multidrop automated dispenser, resulting in 12,000 cells per well. The plate was incubated at 37°C with 5% CO2 for 18-20 hours. • 7) The medium was replaced with 25 uL of serum-free medium and incubated overnight. • 8) 10 ul of 3.5X loading dye was added to each well of the cell plate. The plate was incubated in the dark at 37°C with 5% CO2 for 0.5-1 hours. • 9) After incubation, 5 µl of the 10X working solution from step 2 was transferred to the cell plate. • 10) The cell plate was incubated in the dark at 25°C for 15 minutes, and then the calcium signals were read. • 11) A 5X agonist (LPA) working solution in 1X HBSS+20 mM HEPES+0.1% BSA was prepared in a 384-well assay plate (greiner 784075#), with at least 20 µl per well. The agonist concentration used in this assay was determined based on the dose-response curve from a prior agonist mode experiment, with the EC80 value serving as the final agonist concentration. • 12) Data were read and saved using FLIPR at room temperature with the specified settings. • 13) The signal values were plotted against compound concentrations, and the curve fitting was performed and the IC50 values were calculated using nonlinear regression analysis in GraphPad Prism software.
IC50 values are represented by grades A, B, C, and D, where A represents 0 < IC50 ≤ 10 nM, B represents 10 nM < IC50 ≤ 50 nM, C represents 50 nM < IC50 ≤ 100 nM, and D represents IC50 > 100 nM. Table 1 Antagonistic activity of the compounds of the present invention against LPAR1

[1] = Pharmacokinetic test in mice; type: in vivo, C57 mice
Description: 2.1 Experimental animals: Male C57 mice, 20-25 g, 6 mice/compound, purchased from Chengdu Ddossy Experimental Animals Co., Ltd.
2.2 Experimental design: On the day of the experiment, the C57 mice were randomly grouped according to their body weights. The animals were fasted with water available for 12-14 h one day before the administration, and were fed 4 h after the administration. Table 2. Administration information
Before and after administration, 0.06 mL of blood was taken from the orbit under isoflurane anaesthesia and placed in an EDTAK2 centrifuge tube. The tube was centrifuged at 5000 rpm at 4°C for 10 min, and plasma was collected. The blood collection time points for the intravenous administration group and oral gavage administration group were: 0 min, 5 min, 15 min, 30 min, 1 h, 2 h, 4 h, 6 h, 8 h, and 24 h. Before analysis and detection, all samples were stored at -80°C, and the samples were quantitatively analysed by LC-MS/MS. Table 3. Pharmacokinetic parameters of test compounds in plasma of mice

[2] = Pharmacokinetic test in rats; type: in vivo, SD rats; details: for Vd: read-out: Vdss
Description: 3.1. Experimental animals: Male SD rats, about 220 g, 6-8 weeks old, 6 rats/compound, purchased from Chengdu Ddossy Experimental Animals Co., Ltd.
3.2. Experimental design: On the day of the experiment, the SD rats were randomly grouped according to their body weights. The animals were fasted with water available for 12-14 h one day before the administration, and were fed 4 h after the administration. Table 4. Administration information
Before and after administration, 0.15 mL of blood was taken from the orbit under isoflurane anaesthesia and placed in an EDTAK2 centrifuge tube. The tube was centrifuged at 5000 rpm at 4°C for 10 min, and plasma was collected. Before analysis and detection, all samples were stored at -80°C, and the samples were quantitatively analysed by LC-MS/MS. Table 5. Pharmacokinetic parameters of test compound in plasma of rats

[3] = CHO-LPA1 cells, calcium flux, grades, read-out: LPAR1 IC50
[4] = antagonistic activity against the LPAR1 receptor, read-out: IC50 values
[5] = mouse, iv, mice, i.v. (1 mg/kg), plasma
[6] = rat, iv, rats, i.v. (1 mg/kg), plasma
[7] = rat, po, rats, i.g. (3 mg/kg), plasma

T1 sequence (Q92633 whole entry): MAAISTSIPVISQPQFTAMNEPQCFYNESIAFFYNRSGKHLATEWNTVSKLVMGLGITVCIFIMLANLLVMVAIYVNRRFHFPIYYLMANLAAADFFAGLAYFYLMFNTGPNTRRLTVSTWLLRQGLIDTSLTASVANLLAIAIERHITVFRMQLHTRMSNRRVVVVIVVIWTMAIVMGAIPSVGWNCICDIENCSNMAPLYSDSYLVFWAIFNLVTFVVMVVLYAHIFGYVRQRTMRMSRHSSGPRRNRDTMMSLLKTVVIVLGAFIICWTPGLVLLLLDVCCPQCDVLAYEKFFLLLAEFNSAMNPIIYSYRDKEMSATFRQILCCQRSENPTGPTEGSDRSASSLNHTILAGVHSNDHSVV

Which results are given for `C=C1CCC(CN(C)C(=O)OCc2c(-c3ccc(O[C@H]4CCC[C@H](C(=O)O)C4)c(C)n3)nnn2C)CC1` [Compound 19]?
IC50 (LPAR1; [3]): < 10 nM; IC50 (LPAR1; [4]): 2 nM

For `C=C1CC(CN(C)C(=O)OCc2c(-c3ccc(O[C@H]4CCC[C@H](C(=O)O)C4)c(C)n3)nnn2C)C1` [Compound 5], which IC50 (LPAR1; [3]) is on record?
The IC50 was under 10 nM.

What about the IC50 (LPAR1; [4]) of the same compound?
Its IC50 is 2 nM.

For `Cc1nc(-c2nnn(C)c2CNC(=O)O[C@H]2C[C@@H](OC(F)(F)F)C2)ccc1O[C@H]1CCC[C@H](C(=O)O)C1` [Compound 41], which IC50 (LPAR1; [3]) is on record?
Its IC50 is under 10 nM.

Which IC50 (LPAR1; [3]) does the source give for `CC=C1CC(N(C)C(=O)OCc2c(-c3ccc(O[C@H]4CCC[C@H](C(=O)O)C4)c(C)n3)nnn2C)C1` (stereo partly drawn) [Compound 7] here?
The IC50 was under 10 nM.

What about the IC50 (LPAR1; [4]) of the same compound?
Its IC50 is 2 nM.

For `C=C1C[C@H](Oc2ccc(-c3nnn(C)c3COC(=O)N(C)CCC)nc2C)C[C@@H](C(=O)O)C1` [Compound 24], which IC50 (LPAR1; [3]) is on record?
The IC50 was under 10 nM.

For `Cc1nc(-c2nnn(C)c2COC(=O)N(C)[C@H]2C[C@H](OC(F)(F)F)C2)ccc1O[C@H]1CCC[C@H](C(=O)O)C1` [Compound 31], which IC50 (LPAR1; [3]) is on record?
Its IC50 is under 10 nM.

What does the source list for `Cc1nc(-c2nnn(C)c2CNC(=O)OC2CC(=C(F)F)C2)ccc1OCCC1(C(=O)O)CC1` (stereo not drawn) [Compound 47]?
pharmacokinetic characteristics in mice ([1]; conclusion in words): excellent pharmacokinetic characteristics; C0 or Cmax ([1]; mice, i.g. (3 mg/kg), plasma): 566 ± 122 ng/mL; C0 or Cmax ([1]; mice, i.v. (1 mg/kg), plasma): 1361 ± 179 ng/mL; AUC(0-t) [1, 5]: 1000 ± 333 ng·h/mL; clearance [1, 5]: 16.8 ± 5.7 mL/min/kg; Vd ([1]; mouse, iv, mice, i.v. (1 mg/kg), plasma, read-out: Vdss): 5.4 ± 1.4 L/kg; bioavailability ([1]; mouse, plasma, po, mice, i.g. (3 mg/kg)): 91.3%; AUC(0-t) ([1]; mouse, po, mice, i.g. (3 mg/kg), plasma): 2740 ± 325 ng·h/mL; AUC(0-t) [2, 6]: 2850 ± 532 ng·h/mL; clearance [2, 6]: 5.95 ± 1.2 mL/min/kg; Vd [2, 6]: 0.825 ± 0.027 L/kg; bioavailability ([2]; rat, plasma, po, rats, i.g. (3 mg/kg)): ≥ 98%; AUC(0-t) [2, 7]: 12600 ± 1320 ng·h/mL; C0 or Cmax ([2]; rats, i.g. (3 mg/kg), plasma): 3060 ± 457 ng/mL; C0 or Cmax ([2]; rats, i.v. (1 mg/kg), plasma): 3233 ± 495 ng/mL

For `Cc1nc(-c2nnn(C)c2COC(=O)N(C)CCSC(F)(F)F)ccc1O[C@H]1CCC[C@H](C(=O)O)C1` [Compound 28], which IC50 (LPAR1; [3]) is on record?
Its IC50 is under 10 nM.

For `Cc1nc(-c2nnn(C)c2COC(=O)N(C)[C@H]2C[C@@H](OC(F)(F)F)C2)ccc1O[C@H]1CCC[C@H](C(=O)O)C1` [Compound 30], which IC50 (LPAR1; [3]) is on record?
Its IC50 is under 10 nM.

Which IC50 (LPAR1; [3]) does the source give for `Cc1nc(-c2nnn(C)c2COC(=O)N(C)CCOC(F)(F)F)ccc1O[C@H]1CCC[C@H](C(=O)O)C1` [Compound 14] here?
Its IC50 is under 10 nM.

With `Cc1nc(-c2nnn(C)c2COC(=O)N(C)CCOC(F)F)ccc1O[C@H]1CCC[C@H](C(=O)O)C1` [Compound 27] as the compound, how does the IC50 (LPAR1; [3]) read?
The IC50 was under 10 nM.

With `C=C1CC(COC(=O)NCc2c(-c3ccc(O[C@H]4CCC[C@H](C(=O)O)C4)c(C)n3)nnn2C)C1` [Compound 11] as the compound, how does the IC50 (LPAR1; [3]) read?
Its IC50 is under 10 nM.

With `Cc1nc(-c2nnn(C)c2CNC(=O)OCC2CC(=C(F)F)C2)ccc1O[C@H]1CCC[C@H](C(=O)O)C1` (stereo partly drawn) [Compound 23] as the compound, how does the IC50 (LPAR1; [3]) read?
The IC50 was under 10 nM.

What does the source list for `C=C1CC(N(C)C(=O)OCc2c(-c3ccc(OCC(C)(C)CC(=O)O)c(C)n3)nnn2C)C1` [Compound 29]?
IC50 (LPAR1; [3]): < 10 nM; pharmacokinetic characteristics in rats ([2]; conclusion in words): good pharmacokinetic characteristics; AUC(0-t) [2, 6]: 1090 ± 208 ng·h/mL; clearance [2, 6]: 15 ± 2.7 mL/min/kg; Vd [2, 6]: 3.53 ± 1.6 L/kg; AUC(0-t) [2, 7]: 2540 ± 679 ng·h/mL; C0 or Cmax ([2]; rats, i.g. (3 mg/kg), plasma): 739 ± 29 ng/mL; C0 or Cmax ([2]; rats, i.v. (1 mg/kg), plasma): 2324 ± 170 ng/mL

Which IC50 (LPAR1; [3]) does the source give for `Cc1nc(-c2nnn(C)c2COC(=O)N(C)[C@H]2C[C@H](OC(F)F)C2)ccc1O[C@H]1CCC[C@H](C(=O)O)C1` [Compound 40] here?
Its IC50 is under 10 nM.
